Data published in patent US20230041065A1, “METHODS FOR GENERATING HEMATOPOIETIC STEM CELLS” (The Brigham and Women`s Hospital, Inc., priority 2019, published 2023).
“Also recorded” adds a separate entry of the source.

What was measured:
human PSCs = experiment: FACS analyses of hematopoietic differentiation of human PSCs (embryoid bodies); format: cell-based
Protocol: Embryoid body and hemogenic endothelium differentiation was performed as described in (Sugimura et al. 2017; Ditadi et al. 2015). Briefly, hiPSC colonies were dissociated with 0.05% trypsin for 5 min at 37° C., washed with PBS+2% FBS, and resuspended in StemPro-34 (Invitrogen, 10639-011) supplemented with L-glutamine (2 mM), penicillin/streptomycin ([…]), ascorbic acid (1 mM), human holo-Transferrin ([…], Sigma T0665), monothioglycerol (MTG, 0.4 mM), BMP4 (10 ng/ml), and Y-27632 (10 μM). Five million cells were seeded into 10 cm dishes (Ezsphere, Asahi Glass) for the spheroid formation. On Day 1, bFGF (5 ng/ml) and BMP4 (10 ng/ml) was added to the medium. On Day 2, the media was changed with the StemPro-34 supplemented with SB431542 (6 μM), CHIR99021 (3 μM), bFGF (5 ng/ml), and BMP4 (10 ng/ml). On Day 3, the medium was replaced with StemPro-34 supplemented with VEGF (15 ng/ml) and bFGF (10 ng/ml). On day 6, the medium was changed to StemPro-34 supplemented with bFGF (5 ng/ml), VEGF (15 ng/ml), interleukin (IL)-6 (10 ng/ml), IGF-1 (25 ng/ml), IL-11 (5 ng/ml), SCF (50 ng/ml) and EPO (2IU). The cells were maintained in a 5% CO2, 5% O2 and 95% humidity incubator. All cytokines were purchased from Peprotech.
To isolate the CD34^+ cells, the embryoid bodies (from day 8) were dissociated by 0.05% trypsin, filtered through a 70 μm strainer, CD34^+ cells were isolated by CD34 magnetic bead staining, and subsequently passaged through the LS columns (Miltenyi). A sample from every batch was tested by FACS to validate its purity with the panel. The following antibodies were employed: CD34-PEcy7 (Clone 581; Biolegend), FLK1-PE (CLONE #89106; BD), and 4′,6-diamidino-2-phenylindole (DAPI).
Isolated CD34^+ cells were resuspended in StemPro-34 medium containing Y-27632 (10 μM), TPO (30 ng/ml), IL-3 (10 ng/ml), SCF (50 ng/ml), IL-6 (10 ng/ml), IL-11 (5 ng/ml), IGF-1 (25 ng/ml), VEGF (5 ng/ml), bFGF (5 ng/ml), BMP4 (10 ng/ml), and FLT3 (10 ng/ml) (Ferrel et al 2015). Cells were seeded at a density of 50,000 cells per well onto thin-layer Matrigel-coated 24-well plates. […]

[1] = tested on: cd41:eGFP+ HSCs emerging from flk1:mCherry+ endothelial cells; experiment: Time-lapse confocal imaging of cd41:eGFP+ HSCs emerging from flk1:mCherry+ endothelial cells in transgenic embryos; format: in vivo, zebrafish; settings: 26-42 hpf
Protocol: Mice were purchased Cd45.2 (C57BL6/J) and Cd45.1 (SJL) from The Jackson Laboratory and zebrafish morpholinos from GeneTools. Microangiography was performed by injecting fluorescent-labeled dextran dye in the atrium of zebrafish heart and its passage was recorded using live imaging. Immunostaining of zebrafish heart and mouse AGM were analyzed using an inverted fluorescent microscope. Cardiac tamponade, heart rate, and pulse frequency were analyzed in zebrafish embryos using bright field imaging or time-lapse confocal microscopy. The movement of red blood cells in blood vessels was analyzed as well as the endothelial-to-HSC transition in zebrafish transgenic embryos using time-lapse confocal imaging.
Zebrafish embryos were treated with the following chemical modulators in E3 fish media: 100 uM L-NAME (Fisher Scientific), 50 uM Digitoxigenin (Sigma), 25-50 uM Yoda1 (Cayman Chemical), 1 uM Nanaomycin (Nana; Fisher Scientific), 100 uM Gadolinium chloride (GdCl3; Sigma), 5-10 uM 4α-phorbol 12, 13-didecanaote (4Apdd; Sigma), or GSK205 (10 uM).
cd41:eGFP were crossed with flk1:mCherry zebrafish and flk1:mCherry with lcr:eGFP zebrafish and injected morpholino in their transgenic embryos. […] The relative movement of lcr:eGFP^+ red blood cells was analyzed in the context of flk1:mCherry^+ endothelium. We performed image analysis using Imaris (Bitplane) software.

E11.5 AGM cells = experiment: Whole transcriptome (RNA-seq) analyses of treated E11.5 AGM cells; format: cell-based, mouse
Protocol: RNA-sequencing analyses were performed to measure gene expression patterns in mouse AGM treated with cyclic strain or pharmacological modulators. Using computational algorithms, hierarchical clustering was performed of differentially expressed genes as well as measured their overrepresented biological processes and pathways. Gene expression clusters of differentially expressed genes were analyzed and their mean expression level across cell populations compared. Next, Venn comparison of up- and down-genes was constructed to analyze candidate(s) important for cyclic strain- or pharmacological modulator(s)-mediated the endothelial-to-HSC transition. Furthermore, Dnmt3b and Dnmt3a protein expressions were analyzed in nuclear fractions of mouse AGM cells using EqiQuick assay kits. Data are presented as mean±s.d. unless otherwise noted. Statistical analyses were performed by paired or un-paired Student's t-tests. Significance was set at P<0.05.
Total RNA from E11.5 mouse AGM explant cultures was isolated (control, stretch, Yoda1 and 4αPDD conditions) with the RNAeasy MiniKit (QIAGEN). Our cDNA libraries were generated by BGI Americas Corporation and sequenced with a HiSeq4000 device (Illumina) at eight samples per lane. We mapped our sequenced read fragments to the mouse reference genome GRCm38 (ENSEMBL release 69) using the Genomic Short-Read Nucleotide Alignment program (version 2012-07-20). DESeq2 and DEXSeq were used to test for differential expression (FDR=0.1) and differential exon use, respectively. Gene expression clusters of differentially expressed genes were analyzed and their mean expression level across cell populations compared. Next, Venn comparison was performed of up- and down-genes to analyze candidate(s) important for cyclic strain- or pharmacological modulator(s)-mediating the endothelial-to-HSC transition. Specifically, we performed hierarchical clustering with bootstrap analyses using the gplots package (Warners et al., 2017) in R (R Development Core Team, 2012). […]

Clc1cccc(Cl)c1CSc1nnc(-c2cnccn2)s1 [Yoda1, 2-[5-[[(2,6-Dichlorophenyl)methyl]thio]-1,3,4-thiadiazol-2-yl]-pyrazine]
improvement in the number of HSCs produced from hPSCs (human PSCs; FIG. 7C): 2 Fold
formation of CD34+CD90+ HSCs (human PSCs; day 8+7 of hematopoietic differentiation): enhances the formation of HSCs from hPSC
formation of hCD43negCD235negCD144+CD34+ HECs (human PSCs; embryoid bodies, day 8, control and PIEZO1-/- PSCs): enhances the formation of hCD43^negCD235^negCD144^+CD34^+ HE cells in control but not in PIEZO1^−/− PSCs; also recorded: enhances the formation of hCD43^negCD235^negCD144^+CD34^+ HECs in control but not in PIEZO1^−/− PSCs
HSC formation (endothelial-to-HSC transition) ([1]; control embryos): stimulates HSC formation in control embryos
HSC formation (endothelial-to-HSC transition) ([1]; sih-MO embryos): rescues HSC formation in sih-MO embryos
Dnmt3b and Gimap6 transcript expression (Venn comparison of up-regulated genes) (E11.5 AGM cells): specifically stimulate Dnmt3b transcript expression and Gimap6 transcript expression
expression of endothelial genes (E11.5 AGM cells): diminished expression of endothelial genes; also recorded: repress the expression of endothelial genes
expression of hematopoietic genes (E11.5 AGM cells): elevated expression of hematopoietic genes; also recorded: stimulating the expression of hematopoietic genes
